Assay results reported in patent US10197574B2, “Analyte detection using near-infrared fluorophores” (Portland State University, priority 2011, dated 2019).
Marks after values point to notes of the source that are not given here.

Key:
Emission in blood = test: Emission in blood; set-up: species or system porcine
Method: Compound 15d (Table 1) was diluted to 40 μM in 50% DMSO:50% 25 mM pH 9 phosphate buffer. […] Emission remained stable for at least 1 hour. The absorption profile matches the output of a laser pointer (635-670 nm; max output <5 mW). NIR emission (80 μM) was clearly visible with a digital camera (Kodak EasyShare Z740) in a NIR photograph taken with 8 sec. exposure collected through a Hoya R72 camera filter (% T<1% at <690 nm, % T>90% at >750 nm).
Its absorbance and fluorescence spectra faded over time, but remained visible after about an hour (although with only 10-20% of its original emission intensity). Molecular modeling has shown favorable structural interactions of compounds 5f and 24 with glutathione (see, e.g., FIG. 20—compound 24).
Spectral behavior of compound 15g (type [c] annulated seminaphthorhodamine methyl ester (free amine) with the 3-1 transposition) was investigated to determine its potential for sensing use in whole blood. Solutions of compound 15g in 10% or 90% by volume whole blood (porcine blood in Na-EDTA, Lampire Biological Laboratories) were investigated in a 3×3 mm cell. […] Throughout much of the spectrum, the dye produces a greater absorbance than the blood alone. The change in absorbance between the two spectra provides the effective absorbance of the dye. […]

[1] = Fluorescence emission spectra and Stokes shift of fluorophores (15 μM, 90% aqueous, 10% DMSO); type: physicochemical
Method: Compounds 21 and 7 also were characterized by their fluorescence emission spectra. Fluorescence was measured using 15 μM solutions of each compound in a solution that was 90% aqueous, 10% DMSO. For compound 21, the longest wavelength emission observed from the dianion occurred near 680 nm at pH 9. For compound 7 (transposed), the longest wavelength emission observed from the monoanion occurred near 800 nm at pH 9.
The Stokes shift of each compound was measured and determined to be about 80 nm for the compound 21 dianion, and about 150 nm for the compound 7 (transposed) monoanion.
Compounds 22 and 8 also were characterized by their fluorescence emission spectra. Fluorescence was measured using 15 μM solutions of each compound in a solution that was 90% aqueous, 10% DMSO. For compound 22, the longest wavelength emission observed from the anion occurred near 690 nm at pH 9. For compound 8 (transposed), emission was not observed. Given the greater than 800 nm absorbance peak and the typically large Stokes shifts observed in this class of compounds, it is likely that the emission was beyond the working range of the instrument (>850 nm).
The Stokes shift of each compound was measured and determined to be about 80 nm for the compound 22 anion, and unmeasurable for the compound 8 (transposed) neutral form.
Compounds 20a and 15a also were characterized by their fluorescence emission spectra. Fluorescence was measured using 15 μM solutions of each compound in a solution that was 90% aqueous, 10% DMSO. For compound 20a, the longest wavelength emission observed from its corresponding anion, compound 20c, occurred near 640 nm in NaOH (pH 12). For compound 15a (with 3-1 transposition), the longest wavelength emission observed from the corresponding anion, compound 15h, occurred near 760 nm in NaOH.
The Stokes shift of each compound was measured and determined to be about 95 nm for the compound 20c anion, and about 165 nm for the compound 15h (transposed) anion. Thus, the 3-1 transposition enhanced the Stokes shift by about 70 nm.
(§1) Compound 15b also was characterized by its fluorescence emission spectrum and compared to C.SNARF-5. Fluorescence was measured using a 15 μM solution of compound 15b in a solution that was 90% aqueous, 10% DMSO. For C.SNARF-5, the longest wavelength emission observed from the anion occurred near 632 nm (Whitaker et al., Anal. Biochem. 1991, 194, 330-344). For compound 15b (transposed), the longest wavelength emission observed from the phenoxide occurred near 770 nm.
The Stokes shift of each compound was measured and determined to be about 82 nm for the C.SNARF-5 anion, and about 155 nm for the compound 15b (transposed) phenoxide. Thus, the 3-1 transposition enhanced the Stokes shift by about 73 nm.
as §1, with “15d” for “15b”, “SNARF-1.” for “C.SNARF-5.”, “SNARF-1,” for “C.SNARF-5,”, “631” for “632”, “780 nm (NaOH, pH 12).” for “770 nm.”
The Stokes shift of each compound was measured and determined to be about 58 nm for the SNARF-1 anion, and about 150 nm for the compound 15d (transposed) phenoxide. Thus, the 3-1 transposition enhanced the Stokes shift by about 92 nm.
Compounds 20b and 15g also were characterized by their fluorescence emission spectra. Fluorescence was measured using 15 μM solutions of each compound in a solution that was 90% aqueous, 10% DMSO. For compound 20b, the longest wavelength emission observed from the cation occurred near 640 nm at pH 7.4. For compound 15g (transposed), the longest wavelength emission observed from the cation occurred near 770 nm at pH 7.4. […]

[2] = UV-visible absorbance spectroscopy of fluorophores (15 μM, 90% aqueous, 10% DMSO); type: physicochemical; conditions: for red-shift of absorbance maximum: 15a compared to 20a, anion 15h compared to anion 20c
Method: Compounds 20a and 15a were characterized by UV-visible spectroscopy (FIG. 25). Absorbance was measured using 15 μM solutions of each compound in a solution that was 90% aqueous, 10% DMSO. The peaks at 545 nm (light dashed line) and 595 nm (light solid line) represent the respective anions, compounds 20c and 15h, in NaOH (pH 12). The peaks at 515 nm (heavy dashed line) and 525 nm (heavy solid line) represent the predominantly neutral forms of compounds 20a and 15a at pH 6, respectively.
Although the red shift of compound 15a in methanol was modest, its corresponding anion (compound 15h) in DMSO:aqueous base 1:9 was shifted more substantially by 50 nm to […] as compared to anion 20c under the same conditions. Its fluorescence emission was shifted by an even larger […], emitting at 760 nm. The comparatively large shift of the anion 15h supports a polar effect as playing a key role in modulating the HOMO-LUMO gap in the compound. […]
Known seminaphthorhodafluors display long wavelength absorption at high pH; however, the free amino compound in this series respond to low pH with increased long wavelength absorption.

[3] = Absorbance and fluorescence measured in methanol; type: physicochemical; conditions: versus analogue with known regiochemistry (8 vs 22, 15a vs 20a)
Method: Absorbance and fluorescence of compounds 22 and 8 also were measured in methanol. […] Thus, placement of the hydroxyl group proximal to the xanthene internal oxygen in compound 8 produced a bathochromic shift of 103 nm in the absorption spectrum. The transposition also imparted a corresponding shift in the excitation spectrum, and a large bathochromic shift of 128 nm in the fluorescence emission. Importantly, compound 8 absorbs and emits in the near-infrared with absorption and emission maxima of 701 nm and 816 nm, respectively.
Absorbance and fluorescence of compounds 20a and 15a also were measured in methanol. […] Thus, placement of the hydroxyl group proximal to the xanthene internal oxygen in compound 15a produced a bathochromic shift of 15 nm in the absorbance spectrum. The transposition also imparted a corresponding shift in the excitation spectrum, and a large bathochromic shift of 32 nm in the fluorescence emission.

[4] = Absorbance and emission in 0.1M NaOH; type: physicochemical
From the text: The absorbance and fluorescence spectra of the fluorophore typically are pH dependent. For example, the absorbance maximum for one ester derivative (compound 15d) in 0.1M NaOH is 620 nm and the emission maximum in same solvent is 770 nm. The Stokes shift in this solvent is 150 nm (3142 cm^−1).

[5] = Spectral properties of rhodamine bis-boronic acids and precursors (Table 5); type: physicochemical
From the text: Excitation and emission spectra were normalized to their absorbance at the excitation wavelength, and are proportional to quantum yield.

[6] = Saccharide sensing, absorbance and fluorescence response
Method: Solvents including MeCN, MeOH, EtOH, DMSO and buffer were initially screened for sugar sensing. […] DMSO mixtures were chosen for further studies.
The final pH 7.4 phosphate buffer concentration was 12.5 mM.

[7] = Saccharide sensing, response to ribose; conditions: DMSO:buffer 1:1, entire concentration range investigated
Method: The spectral behavior of both compounds 51 and 53 in the presence of saccharides was further investigated in both 1:1 and 1:9 DMSO-buffer (final pH 7.4 phosphate buffer concentration of 12.5 mM) solutions. Both bis-boronic acids responded to binding of sugars through a red shift in their emission and the expected increase in fluorescence intensity.
FIGS. 37A-37D show the response of bis-boronic acid 51 to fructose, ribose and glucose under the two solvent conditions mentioned above. […] At high sugar concentrations, the response for all three sugars converged. […] An approximately 1.5-fold increase in both absorbance and fluorescence was observed over the entire concentration range investigated. Binding of all three sugars occurred at lower concentrations as compared to the 1:9 DMSO:buffer system, with the response of both ribose and fructose having already plateaued at 10 mM, the lowest concentration investigated. Unlike the 1:9 solvent system, there were significant spectral differences in the responses toward different sugars (FIG. 37C compared to FIG. 37A).

[8] = Saccharide sensing, response to fructose; conditions: DMSO:buffer 1:9; estimated from 140-fold fluorescence and 3-fold absorbance increase
[9] = DMSO:buffer 1:1, pH 7.4 phosphate buffer 12.5 mM
[10] = DMSO:buffer 1:9, pH 7.4 phosphate buffer 12.5 mM
[11] = DMSO:buffer 1:9, high sugar concentrations, all sugars

## Cc1ccc(C)c(-c2c3ccc4cccc(O)c4c3oc3c2ccc2cccc(=O)c23)c1 [Compound 4a]
Emission in blood; blood solution
  absorption in the blood solution: clearly visible and remained stable over extended periods of time

## O=C1OC2(c3ccccc31)c1ccc3cccc(O)c3c1Oc1c2ccc2cccc(O)c12 [Compound 7]
[1]; NaOH (pH 12), anion/dianion/phenoxide, 15 μM, 90% aqueous, 10% DMSO
  longest wavelength emission: either too weak to be detected or, more likely, beyond the working range of the instrument
[2]; 1:9 DMSO:buffer below physiological pH of 7.4
  form in solution: colorless lactone

## COC(=O)c1ccccc1-c1c2ccc3cccc(O)c3c2oc2c1ccc1cccc(=O)c12 [Compound 8]
[3]
  bathochromic shift in the absorption spectrum: 103 nm
  bathochromic shift in the fluorescence emission: 128 nm
[1]; 15 μM, 90% aqueous, 10% DMSO, instrument range to 850 nm
  fluorescence emission: not observed

## COC(=O)c1ccccc1-c1c2ccc(=O)cc-2oc2c1ccc1cccc(O)c12 [Compound 15a]
[3]
  bathochromic shift in the absorption spectrum: 15 nm
  bathochromic shift in the fluorescence emission: 32 nm
[2]
  red-shift of absorbance maximum: 15 nm

## COC(=O)c1ccccc1-c1c2ccc(=[N+](C)C)cc-2oc2c1ccc1cccc(O)c12 [Compound 15d]
Emission in blood; 5% whole blood
  time emission remained stable: at least 1 hour
[4]
  absorbance maximum: 620 nm
  emission maximum: 770 nm

## COC(=O)c1ccccc1-c1c2ccc(=O)cc-2oc2c1ccc1cccc(N)c12 [Compound 15e]
[2]; low pH
  pH titration of absorption: increased long wavelength absorption and decreased short wavelength absorption at low pH

## COC(=O)c1ccccc1-c1c2ccc(=O)cc-2oc2c1ccc1cccc(O)c12 [Compound 15h]
[1]; anion 15h compared to anion 20c
  bathochromic shift in emission wavelength: 130 nm
[1]; anion/phenoxide in NaOH (pH 12)
  Stokes shift: about 165 nm
[1]; anion, DMSO:aqueous base 1:9
  fluorescence emission: 760 nm
[1]; anionic form, NIR emission at 760 nm
  Stokes shift: 160 nm
[2]
  red-shift of absorbance maximum: 50 nm
[2]; anion, DMSO:aqueous base 1:9
  absorbance maximum: 599 nm

## N=c1ccc2c(ccc3c(-c4ccccc4C(=O)O)c4ccc(N)cc4oc32)c1 [Compound 50]
[5]; DMSO buffer 1:9
  quantum yield: 19%
  red shift of maximum absorption versus rhodamine 110: 40 nm
  red shift of maximum emission versus rhodamine 110: ~100 nm
[5]; [9]
  Abs: 542 nm
  Brightness: 6298
  Em: 630 nm
  Ex: 542 nm
  Q.Y.: 0.30
  ε: 21064 M⁻¹ cm⁻¹
[5]; [10]
  Abs: 535 nm
  Brightness: 8083
  Em: 628 nm
  Ex: 534 nm
  Q.Y.: 0.19
  ε: 42701 M⁻¹ cm⁻¹

## O=C(O)c1ccccc1-c1c2ccc(NCc3ccccc3B(O)O)cc2oc2c1ccc1cc(=NCc3ccccc3B(O)O)ccc12 [Compound 51]
[6]; [11]
  increase in absorbance: ~2 fold
  increase in fluorescence: greater than 5 fold
[5]; [9]
  Abs: 579 nm
  Brightness: 8037
  Em: 643 nm
  Ex: 580 nm
  Q.Y.: 0.35
  ε: 23096 M⁻¹ cm⁻¹
[5]; [10]
  Abs: 560 nm
  Brightness: 3032^e
  Em: 638 nm
  Ex: 568 nm
  Q.Y.: 0.15
  ε: 20326 M⁻¹ cm⁻¹
[7]
  increase in absorbance: approximately 1.5 fold
  increase in fluorescence: approximately 1.5 fold

## O=C(O)c1ccccc1-c1c2ccc3cc(NCc4ccccc4B(O)O)ccc3c2oc2c1ccc1cc(=NCc3ccccc3B(O)O)ccc12 [Compound 53]
[6]; DMSO:buffer 1:1, all three sugars, emission at 720 nm, excitation at 640 nm
  increase in emission: ~5 fold
[8]
  quantum yield after binding: 0.186
